Test results taken from ChEMBL document CHEMBL1135068, “Synthesis and anti-angiogenic activity of 6-(1,2,4-thiadiazol-5-yl)-3-amino pyridazine derivatives” (Bioorg Med Chem Lett, 2002).
pIC50: −log10 of the molar value.

Assays:
[1] = species: Rattus norvegicus; test: Anti-angiogenic activity as inhibition of microvessel growth in rat aortic ring cultured in a fibrin clot; assay type: functional; details: Aorta
[2] = Compound was evaluated for ocular toxicity assessed after oral dosing at 40 mg/kg b.i.d. in male Wistar rat; No; assay type: organism-based, Eye; set-up: dose 40 mg/kg, route oral; details: in vivo
[3] = test system: 3LL cell line; test: In vivo anti-tumor and anti-metastatic activity was measured after oral dosing 15 mg/kg b.i.d. to B6D2F1 mice bearing metastatic 3LL Lewis lung tumor; assay type: functional; details: Mus musculus
[4] = Compound was evaluated for ocular toxicity assessed after oral dosing at 40 mg/kg b.i.d. in male Wistar rat; Yes; assay type: organism-based, Eye; set-up: dose 40 mg/kg, route oral; details: in vivo
[5] = test system: 3LL cell line; test: In vivo anti-tumor and anti-metastatic activity was measured after oral dosing b.i.d. to B6D2F1 mice bearing metastatic 3LL Lewis lung tumor; assay type: functional, Mus musculus
[6] = Compound was evaluated for ocular toxicity assessed after oral dosing at 40 mg/kg b.i.d. in male Wistar rat; Very weak; assay type: organism-based, Eye; set-up: dose 40 mg/kg, route oral; details: in vivo

Compound | pIC50 [1] | Eye toxicity [2] | other results
Cc1nsc(-c2ccc(N3CCN(c4cccc(C(F)(F)F)c4)CC3)cc2)n1 | 8.00 | No toxicity | 
FC(F)(F)c1cccc(N2CCN(C3CCN(c4ccc(-c5ncns5)nn4)CC3)CC2)c1 | 9.52 | No toxicity | inhibition in vivo at 15 mg/kg [3]: 54%
Cc1nsc(-c2ccc(N3CCN(c4cccc(C#N)c4)CC3)nn2)n1 | 8.52 |  | 
Cc1nsc(-c2ccc(N3CCN(c4cccc(C(F)(F)F)c4)CC3)nc2)n1 | 8.30 | No toxicity | 
Nc1nsc(-c2ccc(N3CCN(c4cccc(C(F)(F)F)c4)CC3)nn2)n1 | 7.70 | No toxicity | 
Cc1nsc(-c2ccc(N3CCN(c4cccc(F)c4)CC3)nn2)n1 | 8.22 |  | 
CNc1nsc(-c2ccc(N3CCN(c4cccc(C(F)(F)F)c4)CC3)nn2)n1 | 8.52 | No toxicity | 
Cc1nsc(-c2ccnc(N3CCN(c4cccc(C(F)(F)F)c4)CC3)n2)n1 | < 7.00 |  | 
Cc1nsc(-c2ccc(N3CCN(c4cccc([N+](=O)[O-])c4)CC3)nn2)n1 | 8.52 |  | Eye toxicity [4]: Yes
Cc1nsc(-c2nccc(N3CCN(c4cccc(C(F)(F)F)c4)CC3)n2)n1 | < 7.00 | No toxicity | 
Cc1nsc(-c2ccc(N3CCN(c4cccc(N)c4)CC3)nn2)n1 | < 7.00 |  | 
COc1cccc(N2CCN(c3ccc(-c4nc(C)ns4)nn3)CC2)c1 | 8.15 |  | 
CN(C)c1nsc(-c2ccc(N3CCN(c4cccc(C(F)(F)F)c4)CC3)nn2)n1 |  | No toxicity | inhibition in vivo at 15 mg/kg [3]: 39%
CN(C)c1nsc(-c2ccc(N3CCN(c4ccccc4)CC3)nn2)n1 | 10.00 | No toxicity | inhibition in vivo at 15 mg/kg [3]: 13%
Cc1nsc(-c2ccc(N3CCN(c4cc(Cl)cc(Cl)c4)CC3)nn2)n1 | > 10.00 |  | Eye toxicity [4]: Yes
Cc1nsc(-c2ccc(N3CCN(c4cc(C(F)(F)F)cc(C(F)(F)F)c4)CC3)nn2)n1 | > 10.00 |  | Eye toxicity [4]: Yes
FC(F)(F)c1cccc(N2CCN(c3ccc(-c4ncns4)nn3)CC2)c1 | 7.15 | No toxicity | 
FC(F)(F)c1cccc(NC2CCN(c3ccc(-c4ncns4)nn3)CC2)c1 | 8.15 | No toxicity | inhibition in vivo at 15 mg/kg [3]: 42%
Cc1nsc(-c2ccc(N3CCN(c4cccc(Cl)c4)CC3)nn2)n1 | 9.22 |  | Eye toxicity [4]: Yes
Cc1nsc(-c2ccc(N3CCN(c4cccc(C(F)(F)F)c4)CC3)nn2)n1 | 9.52 |  | Eye toxicity [4]: Yes
Cc1nsc(-c2ccc(N3CCN(c4ccccc4C(F)(F)F)CC3)nn2)n1 | 9.70 |  | Eye toxicity [4]: Yes
FC(F)(F)c1cc(N2CCN(c3ccc(-c4ncns4)nn3)CC2)cc(C(F)(F)F)c1 | > 9.00 | No toxicity | Inhibition [5]: 24%
Cc1nsc(-c2ccc(N3CCN(c4ccc(C(F)(F)F)cc4)CC3)nn2)n1 | 7.92 |  | 
CN(C)c1nsc(-c2ccc(N3CCC(N4CCN(c5cccc(C(F)(F)F)c5)CC4)CC3)nn2)n1 | > 9.00 |  | inhibition in vivo at 15 mg/kg [3]: 25%; Eye toxicity [6]: Very weak
CCc1nsc(-c2ccc(N3CCN(c4cccc(C(F)(F)F)c4)CC3)nn2)n1 | 8.10 | No toxicity | 
